This passage reports IC50 results from BindingDB's records for doi:10.1016/j.bioorg.2017.01.008 (University of Karachi, 2017).

pIC50: −log10 of the molar value. “And” between values parts separate entries of the source, which are not always exact repeats. Equal values may be shown once.

In one assay the target is Intestinal-type alkaline phosphatase (Bos taurus, UniProt P19111). Put plainly: Alkaline Phosphatase Inhibition Assay. The note with it: pH 9.8; 37 °C. As to the method: (§1) Alkaline phosphatase (b-TNAP, c-IAP purchased from Calzyme Laboratories, Inc. USA) inhibition assay of different cyclic sulfonamides was performed using a chemiluminescent substrate i.e. CDP-Star® (disodium 2-chloro-5-(4-methoxyspiro[1,2-dioxetane-3,2'-(5-chlorotricyclo[3.3.1.13.7]decan])-4-yl]-1-phenyl phosphate). With a slight modification in reported spectrophotometric procedure, an optimized conditions of the bioassay were developed [Hessle et al., Proc. Natl. Acad. Sci., 99:9445-9449]. Buffer solution for this bioassay was composed of 8 M DEA (pH 9.8) that contain 2.5 mM MgCl2 and 0.05 mM ZnCl2. First of all, the compounds were tested at the final concentration of 200 μM(with final DMSO 1% (v/v)). In bioassay procedure, the total volume (50 μL solution) contained 10 μL of tested compound, followed by the addition of 20 μL of TNAP (1:800 times diluted (0.8 unit/mL) enzyme in assay buffer) or 20 μL of IAP (1:800 times diluted (1 unit/mL) enzyme in assay buffer). The mixture was allowed to incubate for 3-5 min at 37 °C and luminescence was measured using microplate reader (BioTek FLx800, Instruments,Inc. USA). The reaction was initiated by the addition of 20 μL of CDP-star® (final concentration of 110 μM) and the assay mixture was incubated again at 37 °C. The change in the luminescence was measured after for 15 min of incubation. The activity of each compound was compared with total activity control (without any inhibitor). Levamisole (2 mM per well) and L-phenylalanine (4 mM per well) were used as a standard inhibitors for tissuenonspecific alkaline phosphatase (TNAP) and calf intestinal alkaline phosphatase (IAP), respectively.
Sequence of Intestinal-type alkaline phosphatase (P19111 whole entry): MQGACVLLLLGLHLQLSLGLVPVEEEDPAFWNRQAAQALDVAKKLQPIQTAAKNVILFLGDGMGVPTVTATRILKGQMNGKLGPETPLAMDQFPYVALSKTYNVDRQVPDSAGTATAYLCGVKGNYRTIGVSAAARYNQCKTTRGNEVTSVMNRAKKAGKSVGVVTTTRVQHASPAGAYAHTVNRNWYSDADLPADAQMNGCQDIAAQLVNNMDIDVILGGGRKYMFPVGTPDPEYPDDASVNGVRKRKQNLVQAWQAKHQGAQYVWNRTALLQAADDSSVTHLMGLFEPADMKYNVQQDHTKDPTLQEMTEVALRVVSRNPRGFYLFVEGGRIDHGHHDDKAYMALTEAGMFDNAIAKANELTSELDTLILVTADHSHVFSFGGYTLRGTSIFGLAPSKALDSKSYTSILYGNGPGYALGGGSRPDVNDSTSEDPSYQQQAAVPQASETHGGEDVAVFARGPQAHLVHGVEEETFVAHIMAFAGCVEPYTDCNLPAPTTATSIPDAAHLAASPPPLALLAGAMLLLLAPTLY
By pIC50 is commonly meant the IC50 on a negative log10 scale, so that one unit is a factor of ten. Consider `CN(C)c1ccc2c3c(cccc13)S(=O)(=O)NC2c1cc(Cl)cc(Cl)c1O` (stereo unspecified) [6-(Dimethylamino)-3-(3',5'-dichloro-2-hydroxyphenyl)-2,3-dihydronaphtho[1,8-de][1,2]thiazine 1,1-dioxide (7g)], for which the pIC50 is 6.42.
As for `CN(C)c1ccc2c3c(cccc13)S(=O)(=O)NC2c1ccccc1` (stereo unspecified) [6-(Dimethylamino)-3-phenyl-2,3-dihydronaphtho[1,8-de][1,2]thiazine 1,1-dioxide (7a)], the pIC50 is 5.95.

Another assay has as its target T1, Alkaline phosphatase, tissue-nonspecific isozyme (Bos taurus, UniProt P09487).
T1 sequence (P09487 whole entry): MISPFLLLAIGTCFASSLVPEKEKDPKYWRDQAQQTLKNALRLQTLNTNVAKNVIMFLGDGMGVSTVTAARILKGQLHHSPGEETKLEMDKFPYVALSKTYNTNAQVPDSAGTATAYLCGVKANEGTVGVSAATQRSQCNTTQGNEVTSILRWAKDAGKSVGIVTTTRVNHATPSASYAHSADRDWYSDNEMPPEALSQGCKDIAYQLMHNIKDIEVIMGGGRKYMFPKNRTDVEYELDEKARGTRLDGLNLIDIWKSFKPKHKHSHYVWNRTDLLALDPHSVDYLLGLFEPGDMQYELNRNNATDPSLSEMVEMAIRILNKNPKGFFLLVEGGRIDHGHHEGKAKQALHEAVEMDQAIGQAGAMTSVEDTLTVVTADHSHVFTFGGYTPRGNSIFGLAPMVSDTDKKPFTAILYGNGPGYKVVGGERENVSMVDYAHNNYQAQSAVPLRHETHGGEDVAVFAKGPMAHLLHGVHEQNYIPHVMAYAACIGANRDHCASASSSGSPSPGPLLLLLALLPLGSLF
Kind of assay: Alkaline Phosphatase Inhibition Assay. The note with it: pH 9.8; 37 °C. The method, then:
as §1
`Cc1ccc(C2NS(=O)(=O)c3cccc4c(N(C)C)ccc2c34)cc1` (stereo unspecified) [6-(Dimethylamino)-3-(4'-methylphenyl)-2,3-dihydronaphtho[1,8-de][1,2]thiazine 1,1-dioxide (7c)] gave a pIC50 of 6.34.
Consider `COc1ccccc1C1NS(=O)(=O)c2cccc3c(N(C)C)ccc1c23` (stereo unspecified) [6-(Dimethylamino)-3-(2'-methoxyphenyl)-2,3-dihydronaphtho[1,8-de][1,2]thiazine 1,1-dioxide (7i)], for which the negative-log IC50 (pIC50) was 6.51. The pIC50 values of the last two compounds are within 0.2 log units of each other.
`CSc1ccc(C2NS(=O)(=O)c3cccc4c(N(C)C)ccc2c34)cc1` (stereo unspecified) [6-(Dimethylamino)-3-(4'-thiomethylphenyl)-2,3-dihydronaphtho[1,8-de][1,2]thiazine 1,1-dioxide (7e)]: the negative-log IC50 (pIC50) was 5.18.
On the same count and under the same terms, under `COc1cc(C2NS(=O)(=O)c3cccc4c(N(C)C)ccc2c34)ccc1O` (stereo unspecified) [6-(Dimethylamino)-3-(4'-hydroxy-3'-methoxyphenyl)-2,3-dihydronaphtho[1,8-de][1,2]thiazine 1,1-dioxide (7j)] stands 6.70; under `CN(C)c1ccc2c3c(cccc13)S(=O)(=O)NC2c1ccc(Cl)cc1` (stereo unspecified) [6-(Dimethylamino)-3-(4'-dichlorophenyl)-2,3-dihydronaphtho[1,8-de][1,2]thiazine 1,1-dioxide (7b)], 6.38.
In turn, `CN(C)c1ccc2c3c(cccc13)S(=O)(=O)NC2c1ccc(O)cc1` (stereo unspecified) [6-(Dimethylamino)-3-(4'-hydroxyphenyl)-2,3-dihydronaphtho[1,8-de][1,2]thiazine 1,1-dioxide (7d)] had a negative-log IC50 (pIC50) of 6.30.
Turning to `CN(C)c1ccc2c3c(cccc13)S(=O)(=O)NC2c1cc(Cl)cc(Cl)c1O` (stereo unspecified) [6-(Dimethylamino)-3-(3',5'-dichloro-2-hydroxyphenyl)-2,3-dihydronaphtho[1,8-de][1,2]thiazine 1,1-dioxide (7g)], the pIC50 was 6.57.
On to `CN(C)c1ccc2c3c(cccc13)S(=O)(=O)NC2c1cccc([N+](=O)[O-])c1` (stereo unspecified) [6-(Dimethylamino)-3-(3'-nitrophenyl)-2,3-dihydronaphtho[1,8-de][1,2]thiazine 1,1-dioxide (7f)], for which the pIC50 is 5.84.
`CN(C)c1ccc2c3c(cccc13)S(=O)(=O)NC2c1ccc([N+](=O)[O-])cc1` (stereo unspecified) [6-(Dimethylamino)-3-(4'-nitrophenyl)-2,3-dihydronaphtho[1,8-de][1,2]thiazine 1,1-dioxide (7h)] had a pIC50 of 6.96.
`COc1ccc(C2NS(=O)(=O)c3cccc4c(N(C)C)ccc2c34)cc1O` (stereo unspecified) [6-(Dimethylamino)-3-(3'-hydroxy-4'-methoxyphenyl)-2,3-dihydronaphtho[1,8-de][1,2]thiazine 1,1-dioxide (7k)]: the pIC50 was 6.57 and 5.77.
Turning to `N[C@@H](Cc1ccccc1)C(=O)O` [L-[2,3,4,5,6-3H]phenylalanine], the pIC50 is 4.10.
On to `COc1cc(Br)c(C2NS(=O)(=O)c3cccc4c(N(C)C)ccc2c34)cc1O` (stereo unspecified) [6-(Dimethylamino)-3-(5'-bromo-2'-hydroxy-3'-methoxyphenyl)-2,3-dihydronaphtho[1,8-de][1,2]thiazine 1,1-dioxide (7m)], for which the negative logarithm of the IC50 (pIC50) was 6.36 and 6.17.
On to `CN(C)c1ccc2c3c(cccc13)S(=O)(=O)NC2c1ccccc1` (stereo unspecified) [6-(Dimethylamino)-3-phenyl-2,3-dihydronaphtho[1,8-de][1,2]thiazine 1,1-dioxide (7a)], for which the negative-log IC50 (pIC50) was 6.72.
As for `COc1ccc(C2NS(=O)(=O)c3cccc4c(N(C)C)ccc2c34)c(OC)c1OC` (stereo unspecified) [6-(Dimethylamino)-3-(2',3',4'-trimethoxyphenyl)-2,3-dihydronaphtho[1,8-de][1,2]thiazine 1,1-dioxide (7n)], the negative-log IC50 (pIC50) is 5.92 and 6.29.
